pEC50, pIC50: −log10 of the molar value. Values joined by “and” are separate entries in the source; they are usually repeats but may differ in a detail not shown here. Equal entries are not always repeated. Where two headings read alike, the source gives them in different places.
Legend:
[1] = test system: L. donovani AG83 promastigotes; assay: MTT assay on extracellular promastigotes; type: cell-based; settings: Leishmania donovani, 12 h, read-out: Anti-promastigote activity IC50
Method: Next, compound 4 was screened against extracellular promastigotes.
L. donovani AG83 promastigotes (3.0 × 10^6 cells/ml) are incubated with different concentrations of drugs/compounds under study (1, 2, 5, 10 and 20 μM) for 12 h, following which the survival percentage is estimated by MTT assay. Yellow MTT (3-(4,5-dimethylthiazol- 2-yl)-2,5-diphenyltetrazolium bromide, a tetrazole) is reduced to purple formazan in the mitochondria of living cells. The formazan is then solubilized, and the concentration is determined by optical density at 570 nm. Metabolically active cells convert MTT to formazan, thereby generating a quantitative measure of viability and cytotoxicity. Percentage of viable promastigotes in each treatment groups are determined with respect to untreated control cells.

[2] = molecular target: T1, Human Top1 (HTop1) (Homo sapiens, UniProt P11387); assay: Plasmid DNA relaxation assay, HTop1; type: biochemical; settings: averages of three experiments, read-out: HTop1 inhibition (EC50)
T1 construct: made in house; host or cells: Sf-9 insect cells infected with recombinant baculovirus (gift from Prof. J. J. Champoux)
T1 sequence (P11387 1-765): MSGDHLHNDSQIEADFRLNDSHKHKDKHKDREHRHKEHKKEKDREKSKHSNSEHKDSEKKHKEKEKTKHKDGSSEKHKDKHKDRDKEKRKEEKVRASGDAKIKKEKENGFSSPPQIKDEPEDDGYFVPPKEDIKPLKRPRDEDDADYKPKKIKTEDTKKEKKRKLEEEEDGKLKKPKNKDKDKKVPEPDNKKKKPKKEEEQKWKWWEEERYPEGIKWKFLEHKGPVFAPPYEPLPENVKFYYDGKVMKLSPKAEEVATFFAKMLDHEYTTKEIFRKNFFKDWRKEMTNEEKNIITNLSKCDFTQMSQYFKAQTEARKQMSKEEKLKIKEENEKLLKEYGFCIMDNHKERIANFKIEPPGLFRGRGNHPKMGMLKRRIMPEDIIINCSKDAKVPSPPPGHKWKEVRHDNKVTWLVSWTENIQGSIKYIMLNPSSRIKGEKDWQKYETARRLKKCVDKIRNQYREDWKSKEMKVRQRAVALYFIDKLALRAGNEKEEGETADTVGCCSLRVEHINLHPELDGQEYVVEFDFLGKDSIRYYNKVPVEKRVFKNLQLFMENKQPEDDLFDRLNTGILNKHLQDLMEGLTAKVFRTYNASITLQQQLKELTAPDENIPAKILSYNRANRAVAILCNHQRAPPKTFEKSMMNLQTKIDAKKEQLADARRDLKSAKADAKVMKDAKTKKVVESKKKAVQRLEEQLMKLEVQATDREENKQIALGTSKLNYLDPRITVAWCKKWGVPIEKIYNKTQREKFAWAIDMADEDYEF
Method: (§1) To investigate the inhibitory effect of our library compounds on the DNA relaxation activity of the recombinant Human and Leishmania topoisomerase 1 (Table 2), assays were performed involving supercoiled plasmid DNA, the enzymes (HTop1 and LdTop1) and our molecules. The enzymes were purified by the standard literature procedure.
(§2) The type I DNA topoisomerase are assayed by decreased mobility of the relaxed isomers of supercoiled pBS (SK^+) [pBlue-script (SK^+)] DNA in agarose gel. The relaxation assay was carried out as described previously with LdTop1B and HTop I, diluted in the relaxation buffer (25 mM Tris–HCl, pH 7.5, 5% glycerol, 0.5 mM DTT, 10 mM MgCl2, 50 mM KCl, […] and […] BSA) and supercoiled plasmid pBS (SK^+) DNA (85–95% were negatively supercoiled, with remainder being nicked circles)[9][28][29]. The reconstituted enzyme LdTop1B was assayed at 50 mM KCl concentration as described before. For all kinetic studies, the reaction mixtures containing the buffer and DNA were heated to 37 °C before addition of the enzymes. The reactions were rapidly quenched using stop solution and kept on ice. The gels were stained with ethidium bromide (EtBr) ([…]) and the amount of supercoiled monomer DNA band fluorescence were quantified by integration using Gel Doc 2000 under UV illumination (Bio-Rad Quantity One Software), as described previously.
The wild-type HTop1 (91 kDa) was purified from Sf-9 insect cells infected with the recombinant baculovirus (a kind gift from Prof. J. J. Champoux). Approximately, 1 * 10^9 Sf-9 cells were infected with the recombinant virus, and cells were harvested after 48-h of infection. The cells were lysed and enzyme was purified as described. Briefly, at 48 h post-infection, approximately 3 * 10^9 Sf-9 cells were harvested by centrifugation for 5 min at 400 * g. The cells were resuspended in 1 liter of ice-cold phosphate-buffered saline and centrifuged for 5 min at 400 * g. The nuclei were washed twice in 80 ml of lysis buffer minus Triton X-100 and resuspended in 40 ml of resuspension buffer (50 mM KCl, 10 mM Tris-Cl, pH 7.5, 2 mM MgCl2, 25 mM DTT, 0.4 mg/ml phenylmethylsulfonyl fluoride, 0.12 mg/ml aprotinin). The nuclear extract was stirred for 5 min at ~200 rpm. With continued stirring, 50 ml of polyethylene glycol (PEG) buffer (18% PEG 8000, 1 M NaCl, 10% glycerol) was added dropwise in order to precipitate the DNA. The PEG precipitate was pelleted by centrifugation and the resulting PEG supernatant was dialyzed against 4 liters of potassium phosphate buffer. The dialyzed PEG supernatant passed over a 10-ml bed volume of phosphocellulose (Whatman P11) equilibrated with PPB. The HTop1 flowed through the PS column and then passed over a Mono Q column followed by loaded onto a Mono S column. The Mono S column was eluted with a 25-ml 50–200 mM KPO4, pH 7.4, gradient. […] The peak Mono S fractions were pooled, concentrated with an Amicon ultrafiltration cell, dialyzed into storage buffer (50% glycerol, 10 mM Tris-hydrochloride, pH 7.5, 1 mM DTT, 1 mM EDTA), and stored at −20 °C.

[3] = molecular target: Leishmania donovani Topoisomerase 1 (LdTop1) (Leishmania donovani, UniProt A0A3Q8IHS4+Q8WQM6); assay: Plasmid DNA relaxation assay, LdTop1 (simultaneous incubation); type: biochemical
Method: as §1
All the experiments were conducted thrice and representative data from once set of them are expressed as mean ± SD.
as §2
Cells harvested from 1 litre of culture were separately lysed by lysozyme/sonication, and the proteins were purified through Ni-NTA (Ni^2+-nitriloacetate-agarose column (Qiagen, Hilden, Germany) followed by a phospho-cellulose column (P11 cellulose; Whatman, Maidstone Kent, UK) as described previously. Finally, the purified proteins LdTOP1L and LdTOP1S were stored at −70 °C. The concentrations of each protein were quantified by using Bradford Reagent (PIERCE, Thermo Fisher Scientific Inc., Rockford, USA). Purified LdTOP1L was mixed with purified LdTOP1S at a molar ratio of 1:1 to a total protein concentration of 0.5 mg/ml in reconstitution buffer [50 mM potassium phosphate, pH 7.5, 0.5 mM DTT, 1 mM EDTA, 0.1 mM PMSF and 10% (v/v) glycerol]. The mixture was dialyzed overnight at 4 °C and dialyzed fractions were used for plasmid relaxation activity.

Sequence of Leishmania donovani Topoisomerase 1 (LdTop1) (Q8WQM6 entry or part of it): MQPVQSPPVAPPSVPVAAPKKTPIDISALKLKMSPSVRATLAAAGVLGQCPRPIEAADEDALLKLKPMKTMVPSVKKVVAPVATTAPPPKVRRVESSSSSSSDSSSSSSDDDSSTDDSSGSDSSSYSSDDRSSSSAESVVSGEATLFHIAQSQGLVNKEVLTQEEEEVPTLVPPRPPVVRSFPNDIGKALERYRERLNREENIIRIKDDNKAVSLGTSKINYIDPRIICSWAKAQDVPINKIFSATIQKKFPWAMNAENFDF
Sequence of Leishmania donovani Topoisomerase 1 (LdTop1) (A0A3Q8IHS4 entry or part of it): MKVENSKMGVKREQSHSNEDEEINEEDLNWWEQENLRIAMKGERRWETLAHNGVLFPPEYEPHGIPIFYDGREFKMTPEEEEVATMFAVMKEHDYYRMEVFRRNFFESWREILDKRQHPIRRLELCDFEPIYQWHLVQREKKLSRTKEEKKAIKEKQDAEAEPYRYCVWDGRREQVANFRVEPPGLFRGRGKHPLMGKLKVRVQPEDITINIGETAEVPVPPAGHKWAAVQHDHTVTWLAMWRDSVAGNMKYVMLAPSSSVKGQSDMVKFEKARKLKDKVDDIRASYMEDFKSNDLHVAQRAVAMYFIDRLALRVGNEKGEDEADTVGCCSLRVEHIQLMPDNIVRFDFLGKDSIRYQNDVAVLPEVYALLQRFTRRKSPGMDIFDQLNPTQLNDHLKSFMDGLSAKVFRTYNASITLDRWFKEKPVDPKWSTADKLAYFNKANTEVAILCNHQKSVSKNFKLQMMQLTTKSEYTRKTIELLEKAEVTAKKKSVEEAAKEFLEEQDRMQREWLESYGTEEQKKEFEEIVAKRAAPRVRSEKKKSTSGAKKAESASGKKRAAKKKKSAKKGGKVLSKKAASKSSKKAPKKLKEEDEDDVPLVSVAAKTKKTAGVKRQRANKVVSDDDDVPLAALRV

pIC50 [1]	pEC50 [2]	inhibition at 12.5 µM ([3]; LdTop1 relaxation, 12.5 uM, read-out: % inhibition, mean data)	inhibition at 25 µM ([3]; LdTop1 relaxation, 25 uM, read-out: % inhibition, mean data)	inhibition at 50 µM ([3]; LdTop1 relaxation, 50 uM, read-out: % inhibition, mean data)	inhibition at 100 µM ([3]; LdTop1 relaxation, 100 uM, read-out: % inhibition, mean data)	LdTop1 inhibitory activity ([3]; plasmid DNA relaxation)	pEC50 ([3]; plasmid DNA relaxation, averages of three experiments, read-out: LDTop1 inhibition (EC50))	inhibition at 12.5 µM ([3]; read-out: % inhibition (CPT 100%), data 1, LdTop1 relaxation, 12.5 uM)	inhibition at 25 µM ([3]; read-out: % inhibition (CPT 100%), data 1, LdTop1 relaxation, 25 uM)	inhibition at 50 µM ([3]; read-out: % inhibition (CPT 100%), data 1, LdTop1 relaxation, 50 uM)	inhibition at 100 µM ([3]; read-out: % inhibition (CPT 100%), data 1, LdTop1 relaxation, 100 uM)	inhibition at 12.5 µM ([3]; read-out: % inhibition (CPT 100%), data 2, LdTop1 relaxation, 12.5 uM)	inhibition at 25 µM ([3]; read-out: % inhibition (CPT 100%), data 2, LdTop1 relaxation, 25 uM)	inhibition at 50 µM ([3]; read-out: % inhibition (CPT 100%), data 2, LdTop1 relaxation, 50 uM)	inhibition at 100 µM ([3]; read-out: % inhibition (CPT 100%), data 2, LdTop1 relaxation, 100 uM)	EC50 ([3]; supplement sheet Ld Top 1 data, concentrations in uM, read-out: EC50 (LdTop1, supplement sheet))	Structure (SMILES)
~6.00	–	–	–	–	–	–	–	–	–	–	–	–	–	–	–	–	CCCCCCCCCCCCCCCCOP(=O)([O-])OCC[N+](C)(C)C [miltefosine, reference compound]
–	< 4.00	50.1%	65.2%	85.1%	99.5%	considerable activity	5.00 and 4.99	50.1%	66.8%	85.8%	100%	50.1%	63.7%	84.4%	98.9%	10.2 µM	COc1ccc(/C=C2\OC(=O)c3c2cc(C)[nH]c3=O)c(C)c1C [Compound 2]

From PMC4879574, “Identification of Leishmania donovani Topoisomerase 1 inhibitors via intuitive scaffold hopping and bioisosteric modification of known Top 1 inhibitors” (Scientific Reports, 2016)
